Data reported in patent US20240173419A1, “CDK2 DEGRADERS AND USES THEREOF” (Kymera Therapeutics, Inc., priority 2022, published 2024).

Target: T1, CDK2 (Homo sapiens, UniProt P24941)
T1 construct: endogenous in cells; host or cells: MKN1 cells
Test: CDK2 degradation in MKN1 cells (AlphaLISA)
Type: cell-based
Conditions: 14 h incubation; for DC50: read-out: CDK2 degradation 14 h: Mean external-Abs DC50
Procedure, shortened: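 DC50 from four-parameter logistic fit of AlphaLISA CDK2 signal, corrected for no-cell wells. Lysates came from MKN1 cells, 2e4 per well, exposed 14 h at 37° C to compound at 0.001 nM-10 μM (1:5 series, 11 doses) in 0.1% DMSO.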

Row | CDK2 degradation 14 h: Average Dmax % | DC50 | Structure (SMILES)
1 | A (A (>75% o)) | < 100 nM | CC(C1CCN(c2ccc(C3CCC(=O)NC3=O)c(F)c2)CC1)N1CCC(NS(=O)(=O)c2ccc(Nc3ncc(C(F)(F)F)c(N4CCCC(C)(O)C4)n3)c(F)c2)C(F)C1 (stereo not shown) [I-1067]
2 | A (A (>75% o)) | 100 to 500 nM | CC1(O)CCCN(c2nc(Nc3ccc(S(=O)(=O)NC4CCN(CC5(C)CCN(c6ccc(C7CCC(=O)NC7=O)cc6F)CC5)CC4F)cc3F)ncc2C(F)(F)F)C1 (stereo not shown) [I-1068]
3 | A (A (>75% o)) | < 100 nM | CC1(O)CCCN(c2nc(Nc3ccc(S(=O)(=O)NC4CCN(CC5(C)CCN(c6ccc(C7CCC(=O)NC7=O)c(F)c6)CC5)CC4F)cc3F)ncc2C(F)(F)F)C1 (stereo not shown) [I-1069]
4 | A (A (>75% o)) | < 100 nM | COCc1cc(S(=O)(=O)NC2CCC(CN3CCN(c4ccc(C5CCC(=O)NC5=O)c(F)c4)CC3)CC2)ccc1Nc1ncc(C(F)(F)F)c(N2CCCC(C)(O)C2)n1 (stereo not shown) [I-1070]
5 |  | < 100 nM | Cc1cc(S(=O)(=O)NC2CCC(CN3CCN(c4ccc(C5CCC(=O)NC5=O)c(F)c4)CC3)CC2)ccc1Nc1ncc(C(F)(F)F)c(N2CCCC(C)(O)C2)n1 (stereo not shown) [I-1072]
6 | A (A (>75% o)) |  | [2H]C([2H])([2H])c1cc(S(=O)(=O)NC2CCC(CN3CCN(c4ccc(C5CCC(=O)NC5=O)c(F)c4)CC3)CC2)ccc1Nc1ncc(C(F)(F)F)c(N2CCCC(C)(O)C2)n1 (stereo not shown) [I-1072]
7 | B (B (>50% -75%)) | < 100 nM | CC1(O)CCCN(c2nc(Nc3ccc(S(=O)(=O)NC4CC(CCN5CCN(c6ccc(C7CCC(=O)NC7=O)c(F)c6)CC5)C4)cc3C(F)F)ncc2C(F)(F)F)C1 (stereo not shown) [I-1073]
8 | A (A (>75% o)) | 100 to 500 nM | CC1(O)CCC(c2nc(Nc3ccc(S(=O)(=O)NC4CCC(CN5CCN(c6ccc(C7CCC(=O)NC7=O)c(F)c6)CC5)CC4)cc3F)ncc2C(F)(F)F)CC1 (stereo not shown) [I-1074]
9 | B (B (>50% -75%)) | 100 to 500 nM | CC1(O)CCCN(c2nc(Nc3ccc(S(=O)(=O)NC4CCC(CCN5CCN(c6ccc(C7CCC(=O)NC7=O)c(F)c6)CC5)CC4)cc3C(F)F)ncc2C(F)(F)F)C1 (stereo not shown) [I-1076]
10 | A (A (>75% o)) | < 100 nM | Cc1cc(S(=O)(=O)NC2CCC(CN3CCN(c4ccc(C5CCC(=O)NC5=O)c(F)c4)CC3)CC2)c(F)cc1Nc1ncc(C(F)(F)F)c(N2CCCC(C)(O)C2)n1 (stereo not shown) [I-1096]
11 | A (A (>75% o)) | < 100 nM | Cc1cc(S(=O)(=O)NC2CCC(CN3CCN(c4ccc(C5CCC(=O)NC5=O)c(F)c4)CC3)CC2)cc(F)c1Nc1ncc(C(F)(F)F)c(N2CCCC(C)(O)C2)n1 (stereo not shown) [I-1097]
12 | A (A (>75% o)) | < 100 nM | CC1(O)CCCN(c2nc(Nc3ccc(S(=O)(=O)NC4CCC(CN5CCN(c6ccc(C7CCC(=O)NC7=O)cc6)CC5)CC4)cc3Cl)ncc2C(F)(F)F)C1 (stereo not shown) [I-1100]
13 | B (B (>50% -75%)) | 100 to 500 nM | CC1(O)CCCN(c2nc(Nc3ccc(S(=O)(=O)NC4CCC(CN5CCN(c6ccc(C7CCC(=O)NC7=O)cc6)CC5)CC4)cc3C(F)(F)F)ncc2C(F)(F)F)C1 (stereo not shown) [I-1101]
14 | A (A (>75% o)) | < 100 nM | CC1(O)CCCN(c2nc(Nc3ccc(S(=O)(=O)NC4CCC(CN5CCN(c6ccc(C7CCC(=O)NC7=O)cc6)CC5)CC4)cc3C(F)F)ncc2C(F)(F)F)C1 (stereo not shown) [I-1102]
15 | C (C (>25% -50%)) | > 1000 nM | CC1(O)CCCN(c2nc(Nc3ccc(S(=O)(=O)NC4CCC(CN5CCN(c6ccc(C7CCC(=O)NC7=O)c(Cl)c6)CC5)CC4)cc3C(F)(F)F)ncc2C(F)(F)F)C1 (stereo not shown) [I-1103]
16 | A (A (>75% o)) | < 100 nM | CC1(O)CCCN(c2nc(Nc3ccc(S(=O)(=O)NC4CCC(CN5CCN(c6ccc(C7CCC(=O)NC7=O)c(Cl)c6)CC5)CC4)cc3C(F)F)ncc2C(F)(F)F)C1 (stereo not shown) [I-1104]
17 | A (A (>75% o)) | < 100 nM | Cc1c(Nc2ncc(C(F)(F)F)c(N3CCCC(C)(O)C3)n2)ccc(S(=O)(=O)NC2CCC(CN3CCN(c4ccc(C5CCC(=O)NC5=O)c(F)c4)CC3)CC2)c1F (stereo not shown) [I-1105]
18 | A (A (>75% o)) | < 100 nM | CC1(O)CCCN(c2nc(Nc3ccc(S(=O)(=O)NC4CCC(CN5CCN(c6ccc(C7CCC(=O)NC7=O)c(Cl)c6)CC5)CC4)cc3F)ncc2C(F)(F)F)C1 (stereo not shown) [I-1107]
19 | B (B (>50% -75%)) | 100 to 500 nM | CC1(O)CCCN(c2nc(Nc3ccc(S(=O)(=O)NC4CCC(CN5CCN(c6ccc(C7CCC(=O)NC7=O)cc6F)CC5)CC4)cc3C(F)(F)F)ncc2C(F)(F)F)C1 (stereo not shown) [I-1110]
20 | A (A (>75% o)) | 100 to 500 nM | CC1(O)CCCN(c2nc(Nc3ccc(S(=O)(=O)NC4CCC(CN5CCN(c6ccc(C7CCC(=O)NC7=O)cc6F)CC5)CC4)cc3OC(F)F)ncc2C(F)(F)F)C1 (stereo not shown) [I-1111]
21 | A (A (>75% o)) | < 100 nM | CC1(O)CCCN(c2nc(Nc3ccc(S(=O)(=O)NC4CCC(CN5CCN(c6ccc(C7CCC(=O)NC7=O)cc6F)CC5)CC4)cc3Cl)ncc2C(F)(F)F)C1 (stereo not shown) [I-1112]
22 | A (A (>75% o)) | < 100 nM | CC1(O)CCCN(c2nc(Nc3ccc(S(=O)(=O)NC4CCC(CN5CCN(c6ccc(C7CCC(=O)NC7=O)cc6F)CC5)CC4)cc3C(F)F)ncc2C(F)(F)F)C1 (stereo not shown) [I-1113]
23 | B (B (>50% -75%)) | 100 to 500 nM | CC1(O)CCCN(c2nc(Nc3ccc(S(=O)(=O)NC4CCC(CN5CCN(c6ccc(C7CCC(=O)NC7=O)c(F)c6)CC5)CC4)cc3C(F)(F)F)ncc2C(F)(F)F)C1 (stereo not shown) [I-1114]
24 | A (A (>75% o)) | 100 to 500 nM | CC1(O)CCCN(c2nc(Nc3ccc(S(=O)(=O)NC4CCC(CN5CCN(c6ccc(C7CCC(=O)NC7=O)c(F)c6)CC5)CC4)cc3OC(F)F)ncc2C(F)(F)F)C1 (stereo not shown) [I-1115]
25 | A (A (>75% o)) | < 100 nM | CC1(O)CCCN(c2nc(Nc3ccc(S(=O)(=O)NC4CCC(CN5CCN(c6ccc(C7CCC(=O)NC7=O)c(F)c6)CC5)CC4)cc3F)ncc2C(F)(F)F)C1 (stereo not shown) [I-1117]
26 | A (A (>75% o)) | < 100 nM | Cc1cc(S(=O)(=O)NC2CCC(CN3CCN(c4cccc(NC5CCC(=O)NC5=O)c4)CC3)CC2)ccc1Nc1ncc(C(F)(F)F)c(N2CCCC(C)(O)C2)n1 (stereo not shown) [I-1118]
27 | A (A (>75% o)) | < 100 nM | Cc1cc(S(=O)(=O)NC2CCC(CN3CCN(c4cc(NC5CCC(=O)NC5=O)ccc4F)CC3)CC2)ccc1Nc1ncc(C(F)(F)F)c(N2CCCC(C)(O)C2)n1 (stereo not shown) [I-1120]
28 | A (A (>75% o)) | < 100 nM | Cc1cc(S(=O)(=O)NC2CCC(CN3CCN(c4cc(F)cc(NC5CCC(=O)NC5=O)c4)CC3)CC2)ccc1Nc1ncc(C(F)(F)F)c(N2CCCC(C)(O)C2)n1 (stereo not shown) [I-1122]
29 | A (A (>75% o)) | 100 to 500 nM | Cc1cc(S(=O)(=O)NC2CCC(CN3CCN(c4ccc(C(=O)NC5CCC(=O)NC5=O)cc4C)CC3)CC2)ccc1Nc1ncc(C(F)(F)F)c(N2CCCC(C)(O)C2)n1 (stereo not shown) [I-1126]
30 | A (A (>75% o)) | < 100 nM | Cc1cc(S(=O)(=O)NC2CCC(CN3CCC(c4ccc(C5CCC(=O)NC5=O)c(F)c4)CC3)CC2)ccc1Nc1ncc(C(F)(F)F)c(N2CCCC(C)(O)C2)n1 (stereo not shown) [I-1131]
